Assay results published in the supplement of paper PMC13380429.

What was measured:
Settings in all cases: 72 h
Caco-2 [1] = test: cell viability relative to DMSO; higher = less toxic
Calu-3 [2] = test: as above
U2OS [3] = test: as above
Vero E6 [4] = test: as above
Caco-2 [5] = test: relative viability EC50 (midpoint between 100% and the lowest measured viability); higher = less toxic
Calu-3 [6] = test: as above
U2OS [7] = test: as above
Vero E6 [8] = test: as above
Caco-2 [9] = test: drug sensitivity score (DSS) for viability; higher = more toxic; extreme values may be limits of the assay
Calu-3 [10] = test: as above
U2OS [11] = test: as above
Vero E6 [12] = test: as above
HepG2 [13] = test: cell viability relative to DMSO; higher = less toxic
HepG2 [14] = test: relative viability EC50 (midpoint between 100% and the lowest measured viability); higher = less toxic
HepG2 [15] = test: drug sensitivity score (DSS) for viability; higher = more toxic; extreme values may be limits of the assay

| SMILES | cell viability (Caco-2 [1]; 1 nM) [%] | cell viability (Caco-2 [1]; 10 nM) [%] | cell viability (Caco-2 [1]; 100 nM) [%] | cell viability (Caco-2 [1]; 1000 nM) [%] | cell viability (Caco-2 [1]; 10000 nM) [%] | cell viability (Calu-3 [2]; 1 nM) [%] | cell viability (Calu-3 [2]; 10 nM) [%] | cell viability (Calu-3 [2]; 100 nM) [%] | cell viability (Calu-3 [2]; 1000 nM) [%] | cell viability (Calu-3 [2]; 10000 nM) [%] | cell viability (U2OS [3]; 1 nM) [%] | cell viability (U2OS [3]; 10 nM) [%] | cell viability (U2OS [3]; 100 nM) [%] | cell viability (U2OS [3]; 1000 nM) [%] | cell viability (U2OS [3]; 10000 nM) [%] | cell viability (Vero E6 [4]; 1 nM) [%] | cell viability (Vero E6 [4]; 10 nM) [%] | cell viability (Vero E6 [4]; 100 nM) [%] | cell viability (Vero E6 [4]; 1000 nM) [%] | cell viability (Vero E6 [4]; 10000 nM) [%] | relative viability EC50 (Caco-2 [5]) [µM] | relative viability EC50 (Calu-3 [6]) [µM] | relative viability EC50 (U2OS [7]) [µM] | relative viability EC50 (Vero E6 [8]) [µM] | drug sensitivity score (Caco-2 [9]) | drug sensitivity score (Calu-3 [10]) | drug sensitivity score (U2OS [11]) | drug sensitivity score (Vero E6 [12]) | cell viability (HepG2 [13]; 1 nM) [%] | cell viability (HepG2 [13]; 10 nM) [%] | cell viability (HepG2 [13]; 100 nM) [%] | cell viability (HepG2 [13]; 1000 nM) [%] | cell viability (HepG2 [13]; 10000 nM) [%] | relative viability EC50 (HepG2 [14]) [µM] | drug sensitivity score (HepG2 [15]) |
| --- | --- | --- | --- | --- | --- | --- | --- | --- | --- | --- | --- | --- | --- | --- | --- | --- | --- | --- | --- | --- | --- | --- | --- | --- | --- | --- | --- | --- | --- | --- | --- | --- | --- | --- | --- |
| CCCc1nc(C(C)(C)O)c(C(=O)OCc2oc(=O)oc2C)n1Cc1ccc(-c2ccccc2-c2nnn[nH]2)cc1 [olmesartan-medoxomil] | 92.8 | 96 | 97.5 | 91.4 | 99.3 | 91.5 | 92.9 | 100 | 94.3 | 104 | 95.3 | 93.7 | 99.6 | 96.3 | 99.2 | 97.6 | 99.2 | 94.6 | 89 | 115 | > 10 | > 10 | > 10 | > 10 | 0 | 0 | 0 | 0 | – | – | – | – | – | – | – |
| O=C(O[C@@H]1Cc2c(O)cc(O)cc2O[C@@H]1c1ccc(O)c(O)c1)c1cc(O)c(O)c(O)c1 [epicatechin-gallate-(-)] | 99.7 | 93.6 | 87.7 | 92 | 100 | 107 | 102 | 93.2 | 91 | 104 | 97.7 | 97.5 | 103 | 97.2 | 101 | 105 | 102 | 99 | 96.1 | 99 | > 10 | > 10 | > 10 | > 10 | 0 | 0 | 0 | 0 | – | – | – | – | – | – | – |
| CCCCCCCC/C=C/CCCCCCCC(=O)OC[C@H]1O[C@@H](n2ccc(N)nc2=O)C(F)(F)[C@@H]1O [gemcitabine-elaidate] | 95.3 | 96.1 | 79.7 | 68.5 | 67.6 | 106 | 90.1 | 69.1 | 57.8 | 35.2 | 105 | 110 | 70.2 | 77 | 70.7 | 105 | 104 | 55.6 | 61.5 | 58.3 | – | 0.179 | – | – | 7.6 | 12.3 | 8.2 | 13.4 | 104 | 57.6 | 36.5 | 35.8 | 38.5 | 0.0077 | 25.2 |
| OCCN1CCN(CC/C=C2/c3ccccc3Sc3ccc(Cl)cc32)CC1 [zuclopenthixol] | 105 | 80.8 | 92.8 | 94.8 | 82 | 95.1 | 93.9 | 98.9 | 91.9 | 47.9 | 99.6 | 96 | 99.6 | 97.1 | 79.2 | 95.2 | 95 | 93 | 93.7 | 79.2 | > 10 | 1.95 | > 10 | > 10 | 0.8 | 4.1 | 1.1 | 0.8 | 93.4 | 101 | 89.9 | 98.6 | 66 | – | 1.8 |
| COc1cc(OC)c(OC)cc1C=O [asaraldehyde] | 95.2 | 102 | 94.8 | 104 | 90.1 | 87 | 108 | 90.5 | 107 | 88.3 | 97.3 | 103 | 97.7 | 105 | 99 | 108 | 100 | 98.6 | 103 | 102 | > 10 | > 10 | > 10 | > 10 | 0 | 0 | 0 | 0 | – | – | – | – | – | – | – |
| CC(C)N(CCC(=O)c1ccc2ccccc2c1)Cc1ccccc1 | 90.3 | 94.8 | 94.4 | 97.7 | 99.5 | 97.6 | 102 | 102 | 97.5 | 92.1 | 99.2 | 98.2 | 93.5 | 96.7 | 95 | 96.2 | 98.7 | 99 | 96.3 | 87 | > 10 | > 10 | > 10 | > 10 | 0 | 0 | 0 | 0.3 | 98.4 | 91.6 | 99 | 101 | 66.6 | – | 1.4 |
| CCc1c(-c2ccccc2)c(-c2ccccc2)nn1-c1ccccc1-c1cccc(OCC(=O)O)c1 | 102 | 105 | 97.8 | 113 | 91.5 | 93.4 | 94.7 | 101 | 94 | 86.3 | 99.7 | 101 | 98 | 105 | 97.4 | 102 | 103 | 103 | 101 | 97.9 | > 10 | > 10 | > 10 | > 10 | 0 | 0.5 | 0 | 0 | – | – | – | – | – | – | – |
| CC(C)(CO)[C@@H](O)C(=O)NCCC(=O)O [pantothenic-acid] | 101 | 97.3 | 96.7 | 94.8 | 66.4 | 99.6 | 97.7 | 106 | 87.8 | 103 | 95.9 | 91.4 | 101 | 92.3 | 97.4 | 100 | 103 | 95 | 98.5 | 94 | – | > 10 | > 10 | > 10 | 2.4 | 0 | 0 | 0 | – | – | – | – | – | – | – |
